Laboratory results taken from PubChem BioAssay AID564 (University of Pittsburgh Molecular Library Screening Center, 2006).
Calls of active or inactive are those of the source. The rule behind the calls is not given here.

Target: Dual specificity protein phosphatase 6 (Rattus norvegicus) (UniProt Q64346)
Assay: catalase influence on rat DUSP6 inhibition – biochemical, catalase added, probe assessment, dose response (AID 564)
Conditions: recombinant MKP-3 phosphatase, fluorescence, with catalase

Sequence of Dual specificity protein phosphatase 6 (Rattus norvegicus) (Q64346 whole entry, looked up): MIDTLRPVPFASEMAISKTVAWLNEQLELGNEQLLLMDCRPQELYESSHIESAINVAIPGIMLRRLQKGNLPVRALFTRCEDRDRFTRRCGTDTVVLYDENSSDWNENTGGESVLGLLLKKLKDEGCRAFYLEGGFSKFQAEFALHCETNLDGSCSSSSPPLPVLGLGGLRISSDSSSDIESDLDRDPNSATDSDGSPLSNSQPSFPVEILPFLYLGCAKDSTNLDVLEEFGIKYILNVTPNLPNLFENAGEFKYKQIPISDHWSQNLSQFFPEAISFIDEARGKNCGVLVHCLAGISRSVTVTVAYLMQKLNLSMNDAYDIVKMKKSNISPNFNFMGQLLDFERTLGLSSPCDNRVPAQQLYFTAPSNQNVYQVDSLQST

IC50: > 50 µM (inactive)
SMILES: O=C1C(C2=C(O)c3ccccc3C2=O)=Nc2ccccc21
